As a reminder, the IC50 is the concentration needed to halve the response being measured. A word on the GI50: it is the concentration at which growth is held to half of that of the control. For orientation: Ki means the equilibrium dissociation constant of an inhibitor or competing ligand from its target. A lower Ki goes with higher affinity.

Experimental findings from ChEMBL document CHEMBL3808337, “Rapid Discovery of Pyrido[3,4-d]pyrimidine Inhibitors of Monopolar Spindle Kinase 1 (MPS1) Using a Structure-Based Hybridization Approach” (J Med Chem, 2016) are described below.

Some targets named below: Cytochrome P450 2D6 (Homo sapiens, UniProt P10635); Cytochrome P450 3A4 (Homo sapiens, UniProt P08684); CDK2/Cyclin A2 (Homo sapiens, UniProt P24941).
Another data set concerns the target Cytochrome P450 2C19 (Homo sapiens, UniProt P33261). Kind of data set: Inhibition of CYP2C19 (unknown origin). Type of data set: ADME.
The target of a further data set is Cytochrome P450 2C9 (Homo sapiens, UniProt P11712). The data set can be described thus: Inhibition of CYP2C9 (unknown origin). The format is ADME.
Sequence of Cytochrome P450 2C9 (P11712 whole entry): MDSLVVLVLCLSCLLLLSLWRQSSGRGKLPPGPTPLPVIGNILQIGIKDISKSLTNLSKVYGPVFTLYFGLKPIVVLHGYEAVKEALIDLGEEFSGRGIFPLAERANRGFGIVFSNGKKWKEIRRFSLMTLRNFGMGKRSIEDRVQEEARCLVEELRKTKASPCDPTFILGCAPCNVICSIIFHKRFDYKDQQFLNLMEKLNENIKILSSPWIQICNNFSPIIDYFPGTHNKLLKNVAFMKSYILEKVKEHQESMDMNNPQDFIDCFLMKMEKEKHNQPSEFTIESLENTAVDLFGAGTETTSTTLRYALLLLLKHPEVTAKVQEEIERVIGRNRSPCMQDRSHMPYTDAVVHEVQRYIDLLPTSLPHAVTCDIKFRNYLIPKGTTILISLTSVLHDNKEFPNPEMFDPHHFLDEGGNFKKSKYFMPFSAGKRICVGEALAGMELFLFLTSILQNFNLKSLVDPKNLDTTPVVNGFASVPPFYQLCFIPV
In a further data set the target is T1, Cytochrome P450 1A2 (Homo sapiens, UniProt P05177).
T1 sequence (P05177 whole entry): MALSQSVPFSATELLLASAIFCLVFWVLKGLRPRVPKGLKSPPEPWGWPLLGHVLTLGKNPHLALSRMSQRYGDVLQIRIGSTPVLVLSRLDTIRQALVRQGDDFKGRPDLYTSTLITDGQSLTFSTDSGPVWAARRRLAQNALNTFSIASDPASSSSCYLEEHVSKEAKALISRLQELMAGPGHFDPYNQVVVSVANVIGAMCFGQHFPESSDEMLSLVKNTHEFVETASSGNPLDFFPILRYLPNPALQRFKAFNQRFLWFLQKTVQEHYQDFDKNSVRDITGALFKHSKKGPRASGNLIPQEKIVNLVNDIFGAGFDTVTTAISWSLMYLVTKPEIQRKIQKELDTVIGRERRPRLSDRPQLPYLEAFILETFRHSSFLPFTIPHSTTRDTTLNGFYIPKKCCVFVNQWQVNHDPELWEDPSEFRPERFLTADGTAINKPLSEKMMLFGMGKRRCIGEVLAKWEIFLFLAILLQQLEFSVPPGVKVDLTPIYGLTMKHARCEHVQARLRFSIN
The data set can be described thus: Inhibition of CYP1A2 (unknown origin). Type of data set: ADME.

Data set [1] in a line: Drug metabolism in CD1 mouse liver microsomes at 10 uM after 30 mins by LCMS analysis. Type of data set: ADME. The conditions noted are these: read-out: Drug metabolism.
The nature of data set [2]: Antiproliferative activity against human HCT116 cells assessed as cell viability after 72 hrs by MTT assay. Type of data set: functional. The note with it: HCT-116, 72 h.

Molecules are shown by their SMILES.

Sequence of Cytochrome P450 2D6 (P10635 whole entry): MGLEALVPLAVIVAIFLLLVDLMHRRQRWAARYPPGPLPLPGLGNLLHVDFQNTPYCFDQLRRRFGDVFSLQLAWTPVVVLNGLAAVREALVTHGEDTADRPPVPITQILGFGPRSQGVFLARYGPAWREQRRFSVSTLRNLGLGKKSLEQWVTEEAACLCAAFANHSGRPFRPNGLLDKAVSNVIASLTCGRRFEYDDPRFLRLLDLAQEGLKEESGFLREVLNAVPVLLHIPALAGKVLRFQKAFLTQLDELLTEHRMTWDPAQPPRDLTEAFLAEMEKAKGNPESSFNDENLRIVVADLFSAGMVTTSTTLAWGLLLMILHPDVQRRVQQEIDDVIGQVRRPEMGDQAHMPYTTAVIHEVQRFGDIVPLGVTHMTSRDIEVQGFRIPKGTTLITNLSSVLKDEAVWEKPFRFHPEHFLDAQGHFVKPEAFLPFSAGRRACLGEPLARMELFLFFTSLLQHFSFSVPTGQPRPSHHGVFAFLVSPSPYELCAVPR
Sequence of Cytochrome P450 2C19 (P33261 whole entry): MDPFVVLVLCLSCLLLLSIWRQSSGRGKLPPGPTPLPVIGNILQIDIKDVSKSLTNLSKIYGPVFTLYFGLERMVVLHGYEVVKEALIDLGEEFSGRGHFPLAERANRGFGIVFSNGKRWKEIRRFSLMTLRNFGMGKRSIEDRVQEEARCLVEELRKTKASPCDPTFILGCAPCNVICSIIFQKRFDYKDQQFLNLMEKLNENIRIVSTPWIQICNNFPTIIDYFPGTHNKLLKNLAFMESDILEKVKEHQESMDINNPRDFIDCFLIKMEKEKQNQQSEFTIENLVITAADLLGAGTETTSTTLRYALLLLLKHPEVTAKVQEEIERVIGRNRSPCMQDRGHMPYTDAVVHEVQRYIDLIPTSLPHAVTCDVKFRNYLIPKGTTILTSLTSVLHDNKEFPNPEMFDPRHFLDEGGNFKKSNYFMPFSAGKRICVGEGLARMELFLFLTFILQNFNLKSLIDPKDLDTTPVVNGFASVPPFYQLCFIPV
Sequence of Cytochrome P450 3A4 (P08684 whole entry): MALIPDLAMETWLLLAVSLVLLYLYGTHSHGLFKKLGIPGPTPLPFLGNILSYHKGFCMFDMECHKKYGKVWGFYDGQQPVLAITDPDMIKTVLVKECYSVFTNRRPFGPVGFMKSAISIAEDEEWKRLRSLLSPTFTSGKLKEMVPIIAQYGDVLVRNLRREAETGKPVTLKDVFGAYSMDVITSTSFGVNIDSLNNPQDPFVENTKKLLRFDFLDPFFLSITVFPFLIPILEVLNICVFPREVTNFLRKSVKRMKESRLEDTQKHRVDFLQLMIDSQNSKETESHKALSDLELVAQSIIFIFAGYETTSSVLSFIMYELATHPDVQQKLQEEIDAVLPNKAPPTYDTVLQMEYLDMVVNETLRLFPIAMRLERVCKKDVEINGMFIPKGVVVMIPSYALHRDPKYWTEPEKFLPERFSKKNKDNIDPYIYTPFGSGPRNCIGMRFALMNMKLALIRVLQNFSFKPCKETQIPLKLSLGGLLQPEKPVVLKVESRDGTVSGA

In the case of `Cn1cc(-c2cc3cnc(Nc4ccc(-c5cncn5C)cc4Cl)cc3n2C(=O)OC(C)(C)C)cn1`, the half-maximal inhibitory concentration (IC50) on Cytochrome P450 2C19, on Cytochrome P450 2D6, against Cytochrome P450 2C9, against Cytochrome P450 1A2 and on Cytochrome P450 3A4 was less than 1000 nM throughout. The compound `CCOc1cc(-c2cnn(C)c2)ccc1Nc1ncc2ccnc(-c3cnn(C)c3)c2n1` had a concentration for half-maximal inhibition (IC50) against CDK2/Cyclin A2 of more than 45000 nM. Further, the metabolised at 0.5 h, 10 µM in data set [1] amounted to 45%. With `COc1cc(-c2cnn(C)c2)ccc1Nc1ncc2ccnc(NC3CCCCC3)c2n1`, the concentration for 50% growth inhibition (GI50) in data set [2] came to 120 nM. On CDK2/Cyclin A2, this compound gave an IC50 of 190 nM and a Ki of 100 nM. In addition, in data set [1], the metabolised at 0.5 h, 10 µM was determined as 22%. Regarding `COc1cc(-c2cnn(C)c2)ccc1Nc1ncc2ccnc(C3CC3)c2n1`, the metabolised at 0.5 h, 10 µM in data set [1] came to 51%.

As for `Cc1cc(-c2cnn(C)c2)ccc1Nc1ncc2ccnc(-c3cnn(C)c3)c2n1`, the metabolised at 0.5 h, 10 µM in data set [1] amounted to 63%. Turning to `COc1cc(-c2cnn(C)c2)ccc1Nc1ncc2ccnc(-c3ccccc3)c2n1`, the metabolised at 0.5 h, 10 µM in data set [1] stood at 40%. `COc1cc(-c2cnn(C)c2)ccc1Nc1ncc2ccnc(N[C@H](C)C(C)(C)C)c2n1`: in data set [2], the GI50 worked out at 220 nM. Further, in data set [1], the metabolised at 0.5 h, 10 µM came out at 25%. As to `COc1cc(-c2cnn(C)c2)ccc1Nc1ncc2ccnc(N3CCCC3)c2n1`, the GI50 in data set [2] stood at 470 nM. In addition, the metabolised at 0.5 h, 10 µM in data set [1] was 64%. Regarding `COc1cc(-c2cnn(C)c2)ccc1Nc1ncc2ccnc(NCC(C)(C)C)c2n1`, the 50% growth inhibitory concentration (GI50) in data set [2] was determined as 340 nM. For the same compound, the metabolised at 0.5 h, 10 µM in data set [1] was found to be 31%. As to `COCCOc1cc(-c2cnn(C)c2)ccc1Nc1ncc2ccnc(-c3cnn(C)c3)c2n1`, the metabolised at 0.5 h, 10 µM in data set [1] came out at 59%. Regarding `COc1cc(-c2cnn(C)c2)ccc1Nc1ncc2ccnc(NCC(C)C)c2n1`, in data set [2], the GI50 is 1100 nM. Moreover, the metabolised at 0.5 h, 10 µM in data set [1] turned out to be 66%. Consider `COc1ccc(Nc2cc3c(-c4ccco4)cccc3cn2)cc1`, for which the half-maximal inhibitory concentration (IC50) on CDK2/Cyclin A2 stood at 31100 nM. For the compound `COc1cc(-c2cnn(C)c2)ccc1Nc1ncc2ccnc(-c3cnn(C)c3)c2n1`, in data set [1], the metabolised at 0.5 h, 10 µM turned out to be 73%. Turning to `COc1cc(-c2cnn(C)c2)ccc1Nc1ncc2ccnc(NCC3CC3)c2n1`, in data set [2], the GI50 was 320 nM. Besides, in data set [1], the metabolised at 0.5 h, 10 µM was 33%.

As for `COc1cc(-c2cnn(C)c2)ccc1Nc1ncc2ccnc(SC3CCCCC3)c2n1`, the half-maximal inhibitory concentration (IC50) against CDK2/Cyclin A2 is more than 10000 nM.

Take `COc1ccc(Nc2cc3c(-c4cnn(C)c4)cccc3cn2)cc1`: the concentration for half-maximal inhibition (IC50) at CDK2/Cyclin A2 amounted to 1220 nM.

The compound `CC(C)Oc1cc(-c2cnn(C)c2)ccc1Nc1ncc2ccnc(-c3cnn(C)c3)c2n1` displayed a concentration for half-maximal inhibition (IC50) on CDK2/Cyclin A2 of more than 10000 nM. Moreover, the metabolised at 0.5 h, 10 µM in data set [1] worked out at 45%.
